Assay results taken from US11865102B2, “Cannabidiol preparations and its uses” (GW Research Limited, priority 2018, dated 2024).
Read-outs that look alike come from different tables or passages of the source.

Key:
[1] = test system: human iPSC-derived cerebral cortical neural stem cells (hNSCs); assay: Neurogenesis and neuronal differentiation of hNSCs (MAP2 immunocytochemistry); format: cell-based; conditions: 0.1 and 1 μM, 3 or 5 days
Protocol: Human iPSC-derived cerebral cortical neural stem cells (hNSCs) (Axol Bioscience Inc., UK) were cultured as monolayers at a density of 1.010^4 cells/cm^2 on 100 mm diameter Petri dishes. The cells were collected from their original cryovial, suspended in Plating-XF Medium and plated on Petri dishes coated with SureBondXF 1× working solution prepared in D-PBS (without calcium or magnesium). hNSCs were incubated at 37° C. and 5% CO2 and 24 hours after of incubation, the plating medium was replaced with fresh Neural Expansion-XF Medium supplemented with the growth factors Recombinant Human EGF and Recombinant Human FGF2 (final concentration of 20 ng/mL (1×) of FGF2 and EGF). The cultures were re-fed with fresh Neural Expansion-XF supplemented with EGF and FGF2 every two days. When the hNSCs reached approximately 80% confluence, they were prepared for treatment. […]
Digital Leica LAS AF 2.2.0 software (Live Data Mode system) was used for counting Map2ab+DAPI+ cells. […] For each experimental condition, cells from 3 different tubes were each analyzed in triplicate and 3 frames were collected at 20× magnification. Data were analyzed with GraphPad Prism 6 software, version 6.05 (GraphPad, Inc.) and are expressed as mean±SEM. Statistical differences among groups were determined by two-way ANOVA followed by post hoc Bonferroni tests for comparison among means. […]

[2] = test system: MES-induced tonic seizures; assay: Maximal electroshock seizure (MES) test; format: in vivo; conditions: Mus musculus, ip, i.p. 60 minutes prior to MES, male C57Bl6 mice, sigmoidal curve, constant top, read-out: ED50 protecting 50% of mice against MES-induced tonic seizures
Protocol: This study was performed using male C57Bl6 mice, weighing between 23.6-31.2 g, which were purchased from a licensed breeder (Charles River, UK). Naïve mice were acclimatized to the procedure room in their home cages, with food and water available ad libitum. Animals were housed in groups of 2-3, in standard caging on a 12 hr/12 hr light-dark cycle. All animals were tail marked and weighed at the beginning of the study. Animals were randomly assigned to vehicle or treatment groups.
The following drugs were used in this study: synthetic CBD (SYN) and botanically derived purified CBD (BOT). The control vehicle used was (1:1:18), which was 5% Ethanol, 5% Kolliphor, 90% saline, and has been used extensively throughout similar seizure tests. All drugs were dissolved in the control vehicle for comparison. Animals were dosed (10 ml/kg) i.p. at 60 minutes prior to the administration of the maximal electroshock seizure (IVIES) test. In addition to the vehicle group, the dosage groups used for each treatment and included doses of 10, 50, 100 (Experiment 1 only), 150 and 200 mg/kg for CBD (SYN) and CBD (BOT). The number of animals in each of these groups were 10 (n=10).
Two separate experiments were undertaken using two different batches of the botanically derived purified CBD. […]

[3] = test system: sub-chronic PCP-induced deficit in novel object recognition; assay: Novel object recognition (NOR) test after sub-chronic PCP; format: in vivo; conditions: rat dose multiplied by 0.16 (FDA dose conversion guidance)
Protocol: Female hooded-Lister rats were used for this experiment. Rats were housed in groups of 5 under standard laboratory conditions under a 12 hr light: dark cycle, with lights on at 0700 hr. Testing was carried out in the light phase. Rats were randomly assigned to two treatment groups and treated with vehicle, n=20 (distilled water, i.p.) or Phencyclidine hydrochloride (PCP), n=100 (2 mg/kg, i.p. twice daily for 7-days). PCP was dissolved in distilled water. This was followed by a 7-day wash out period before the rats were tested following acute treatment with CBD, risperidone or vehicle. […]
Following the 3 minute habituation period, the rats are given two 3 minute trials (T1 and T2) which were separated by a 1 minute inter-trial interval in the home cage during which the objects were changed. Behavior in all trials was recorded on video for subsequent blind scoring. […]
The exploration time(s) of each object (A, B, familiar and novel) in each trial were recorded using two stopwatches and the following factors were calculated: total exploration time of both objects in the acquisition trial, total exploration time of both objects in the retention trial. Habituation of exploratory activity included the exploration time, as measured by the number of lines crossed, for both trials.
All data were assessed for normality using D'Agostino and Pearson normality test. […]

With `C=C(C)[C@@H]1CCC(C)=C[C@H]1c1c(O)cc(CCCCC)cc1O` [Synthetic CBD, 2-[(1R,6R)-3-Methyl-6-(1-methylethenyl)-2-cyclohexen-1-yl]-5-pentyl-1,3-benzenediol] the “Effect on neurogenesis and neuronal differentiation of hNSCs relative to vehicle-treated cells” value [1] was “did not have a significant effect”, the ED50 ([2]; Experiment 1) was 77.6 mg/kg and the ED50 ([2]; Experiment 2) was 77.4 mg/kg. For the same molecule, the “Human equivalent of the rat MED” value [3] was 1.6 mg/kg/day.
